# Experimental data taken from paper PMC7472781, “Inherited and Acquired Determinants of Hepatic CYP3A Activity in Humans” (Frontiers in Genetics, 2020).
# Marks after values point to notes of the source that are not given here.
# Tests used:
# CYP3A [1] = assay: Within- and between-subject variance and genetic component (Kalow) of the 4 CYP3A biomarkers, three occasions; details: for Genetic component: from intra- and inter-individual variation, independent of twin status, AUC, plasma concentration or 24-h urine Ae
# Description: (§1) Predefined primary endpoint was midazolam AUC. All concentrations and pharmacokinetic parameters were determined on three independent occasions to compare intra- versus interindividual variation. […] In structural equation modeling of heritability and in the other multifactorial analyses the individual means from the measurements or parameters obtained on the three occasions were used. Using structural equation analysis, variation was separated into additive genetic (A), common environmental (C), and unique environmental (E) effects. The heritability is the proportion of the variance resulting from the genetic effect (A). In order to investigate the genetic, common environmental, and unique environmental effects of the different traits taken into account, the possible correlation between traits were fitted in multivariate ACE, AE, and CE biometrical models using the mcglm package for multivariate regression analysis in R. As an exploratory analysis, we computed the correlation between MZ and DZ twins based on an unstructured (equal mean and variance for MZ and DZ twins) model. In all models, the mean structure for each trait was specified as a linear function of the covariates age and sex.
# CYP3A [2] = assay: Twin correlations and structural equation modeling (ACE, AE, CE) of heritability of the CYP3A biomarkers
# Description: as §1
# CYP3A [3] = assay: Multifactorial analysis of genetic and environmental effects on the CYP3A probe drugs and biomarkers; details: in vivo
# Description: DNA was isolated from whole venous blood by automated solid phase extraction with the EZ1^TM DNA Blood 350 μl Kit using the Bio-robot EZ1^TM (both Qiagen, Hilden, Germany). The CYP3A4^∗1b and ^∗22 alleles as well as the CYP3A5^∗1/^∗3 polymorphism were genotyped by DNA sequencing using fluorescence-labeled dideoxynucleotides and detection via Gene Mapper v3.7 Software® (Applied Biosystems®, Foster City, United States). Zygosity was assessed by analyzing variants in 23 polymorphic genes. Monozygosity was concluded when there were no differences regarding the polymorphisms in both siblings of one twin pair.
# as §1
# CYP3A [4] = details: in vivo
# Description: Cholesterol and 4ß-OH cholesterol were measured in the baseline blood samples before drug administration. All samples were centrifuged for 10 min (4000 rpm) at 4°C and the plasma was stored at −20°C.
# Calibration samples for cholesterol were prepared in isooctane with 10% 2-propanol in the concentration range from 1 to 30 μg. Calibration samples for 4ß-hydroxycholesterol were prepared in isooctane with 0.8% 2-propanol from 5 to 100 ng. […] Calibration samples were worked up as the samples, and analyzed together with the unknown samples. […] The concentration in unknown samples was obtained from the regression line.
# CYP3A [5] = assay: clinical; details: for AUC: 0.2 mg midazolam i.v., zero to infinity; for AUC420: dose to 420 min
# Description: Midazolam was administered as a 2 min intravenous infusion with a total dose of 0.2 mg. The phenotyping test with midazolam was performed on three different occasions with a time interval of at least 1 week and maximally 3 months.
# Pharmacokinetic parameters were estimated by non-compartmental analyses using the WinNonlin software (Pharsight Corporation, Mountain View, United States). The AUC from zero to infinity (AUC), was calculated by the linear/log trapezoidal rule and using the terminal elimination rate constant (lambda z). […] Total plasma clearance (Cl) after administration of midazolam was calculated as the ratio dose over AUC. Time (tmax) and amount of maximum plasma concentration (Cmax) were given as measured and the terminal half-life (t1/2) was calculated as t1/2 = ln(2)/lambda z.
# [6] = ref Heizmann et al., 1983; cited from earlier work
compound,measurement,setting,value
"C[C@]12CCC(=O)C=C1[C@@H](O)C[C@@H]1[C@@H]2[C@@H](O)C[C@@]2(C)[C@H]1CC[C@]2(O)C(=O)CO [6ß-OH-cortisol, 6-ß-hydroxycortisol]",Genetic component,CYP3A [1],0.457
same,Variance between subjects (Varb) of Ae (24-h-urine),"CYP3A [1]; human, in vivo",8141 μg/24 h
same,Variance within subjects (Varw) of Ae (24-h-urine),CYP3A [1]; three occasions,4247 μg/24 h
same,Variation due to additive genetic (inherited) effects,CYP3A [2]; in vivo,31%
same,rdz (correlation between DZ twins),CYP3A [2]; in vivo,0.50 (0.13)*
same,rmz (correlation between MZ twins),CYP3A [2]; in vivo,0.68 (0.06)*
same,"Coefficient, CYP3A4*22",CYP3A [3],−127.40
same,"Coefficient, CYP3A5*3",CYP3A [3],0.70
same,"Coefficient, age",CYP3A [3],0.94
same,"Coefficient, lean body weight",CYP3A [3],−1.35
same,"Coefficient, sex",CYP3A [3],−9.28
same,"Coefficient, smoking status",CYP3A [3],−8.66
same,"Coefficient, oral contraceptives",CYP3A [3],3.37
same,"Ae (24-h-urine), mean",CYP3A [4],222 μg/24 h
"Cc1ncc2n1-c1ccc(Cl)cc1C(c1ccccc1F)=NC2 [Midazolam, midazolam]",Median AUC,CYP3A [5]; *1/*1 and *1/*1B genotypes (n = 110),439.1 μg ∗ min/L
same,AUC,"CYP3A [5]; DZ twins, value (range)",431.0 (287.8 – 640.7) μg * min/L
same,AUC420,"CYP3A [5]; DZ twins, value (range)",354.8 (240.0 – 542.9) μg * min/L
same,tmax,"CYP3A [5]; DZ twins, value (range)",10 (10 – 19) min
same,AUC,"CYP3A [5]; MZ twins, value (range)",450.3 (290.3 – 897.4) μg * min/L
same,AUC420,"CYP3A [5]; MZ twins, value (range)",378.6 (255.8 – 636.4) μg * min/L
same,"AUC, inter-individual range",CYP3A [5]; all subjects,288 – 897.4 μg∗min/L
same,Inter-individual variation in AUC,CYP3A [5]; all subjects,3.1 fold
same,"AUC, mean","CYP3A [5]; all subjects, three occasions",464.0 µg·min/L
same,Median AUC,CYP3A [5]; daily fruit consumption,425.4 μg ∗ min/L
same,Median AUC,CYP3A [5]; heterozygous carriers of CYP3A4*22 (n = 4),595.1 μg ∗ min/L
same,tmax,"CYP3A [5]; human, plasma, intravenous, 0.2 mg",0.167 h
same,clearance,"CYP3A [5]; human, plasma, intravenous, 0.2 mg, Cl, DZ twins, total plasma clearance, value (range)",480 mL/min
same,clearance,"CYP3A [5]; human, plasma, intravenous, 0.2 mg, Cl, DZ twins, value (range)",6.74 mL/min/kg
same,clearance,"CYP3A [5]; human, plasma, intravenous, 0.2 mg, Cl, MZ twins, total plasma clearance, value (range)",450 mL/min
same,clearance,"CYP3A [5]; human, plasma, intravenous, 0.2 mg, Cl, MZ twins, value (range)",6.8 mL/min/kg
same,clearance,"CYP3A [5]; human, plasma, intravenous, 0.2 mg, Clearance, summary in discussion (Table 2)",~500 mL/min
same,Cmax,"CYP3A [5]; human, plasma, intravenous, 0.2 mg, DZ twins, value (range)",3.76 ng/mL
same,Cmax,"CYP3A [5]; human, plasma, intravenous, 0.2 mg, MZ twins, value (range)",4.11 ng/mL
same,half-life,"CYP3A [5]; human, plasma, intravenous, 0.2 mg, Elimination half-life, summary in discussion (Table 2)",~2 h
same,half-life,"CYP3A [5]; human, plasma, intravenous, 0.2 mg, t1/2, DZ twins, terminal half-life, value (range)",3.08 h
same,half-life,"CYP3A [5]; human, plasma, intravenous, 0.2 mg, t1/2, MZ twins, terminal half-life, value (range)",2.72 h
same,AUC higher in male than in female subjects,CYP3A [5]; median,8%
same,Variation of plasma concentrations between subjects,"CYP3A [5]; one study day, all subjects",about 10 fold
same,Median AUC,CYP3A [5]; rare fruit consumption,519.4 μg ∗ min/L
same,Intra-individual (between-days) mean coefficient of variation,CYP3A [5]; three occasions,11.3%
same,Median AUC,CYP3A [5]; thrice weekly fruit consumption,446.9 μg ∗ min/L
same,Median AUC,CYP3A [5]; very rare fruit consumption,558.9 μg ∗ min/L
same,Genetic component,CYP3A [1],0.612
same,Variation that may be due to genetic factors (from genetic component),"CYP3A [1]; human, in vivo",up to 61%
same,C^2 (common environmental effect),CYP3A [2]; ACE model,0.48 (0.24)*
same,H^2 (heritability),CYP3A [2]; ACE model,0.15 (0.25)
same,Variation attributed to common environmental factors,CYP3A [2]; ACE model,48%
same,Variation due to additive genetic (inherited) effects,CYP3A [2]; ACE model,15%
same,H^2 (heritability),CYP3A [2]; AE model,0.63 (0.06)*
same,C^2 (common environmental effect),CYP3A [2]; CE model,0.60 (0.06)*
same,rdz (correlation between DZ twins),CYP3A [2]; unstructured model,0.52 (0.13)*
same,rmz (correlation between MZ twins),CYP3A [2]; unstructured model,0.66 (0.06)*
same,"Coefficient, CYP3A4*22",CYP3A [3]; human,169.57
same,"Coefficient, CYP3A5*3",CYP3A [3]; human,32.33
same,"Coefficient, age",CYP3A [3]; human,−0.60
same,"Coefficient, sex",CYP3A [3]; human,74.51
same,"Coefficient, lean body weight","CYP3A [3]; human, 0.2 mg",−7.29
same,"Coefficient, smoking status","CYP3A [3]; human, 0.2 mg",−21.79
same,"Coefficient, oral contraceptives","CYP3A [3]; human, 0.2 mg",−63.18
same,Fraction of midazolam eliminated as 1-OH-midazolam,[6],Approximately 75%
